Reference: patent US6004955A, “Cyclic carbamates and isoxazolidines as IIb/IIIa antagonists” (DuPont Pharmaceuticals Company, priority 1998, dated 1999)
pIC50: −log10 of the molar value.

System: platelet aggregation (using platelet rich plasma (PRP))
Test: Platelet Aggregation Assay (without esterase)
Format: cell-based
Conditions: human platelet rich plasma
Procedure: Platelet Aggregation Assay: Venous blood was obtained from the arm of a healthy human donor who was drug-free and aspirin-free for at least two weeks prior to blood collection. Blood was collected into 10 mL citrated Vacutainer tubes. The blood was centrifuged for 15 minutes at 150×g at room temperature, and platelet-rich plasma (PRP) was removed. The remaining blood was centrifuged for 15 minutes at 1500×g at room temperature, and platelet-poor plasma (PPP) was removed. Samples were assayed on a aggregometer (PAP-4 Platelet Aggregation Profiler), using PPP as the blank (100% transmittance). 200 μL of PRP was added to each micro test tube, and transmittance was set to 0%. 20 μL of various agonists (ADP, collagen, arachidonate, epinephrine, thrombin) were added to each tube, and the aggregation profiles were plotted (% transmittance versus time). The results are expressed as % inhibition of agonist-inducedplatelet aggregation. For the IC50 evaluation, the test compounds were added at various concentrations prior to the activation of the platelets.
Table A below sets forth the antiplatelet activity of representative compounds of the present invention. The indicated compounds were tested for their ability to inhibit platelet aggregation (using platelet rich plasma (PRP)). The IC50 value (the concentration of antagonist which inhibits platelet aggregation by 50% relative to a control lacking the antagonist) is shown. In Table 5 the IC50 values are expressed as: +++=IC50 of <10 μM (μM=micromolar).

SMILES: CCCCOC(=O)N[C@@H](CNC(=O)CC1CC(c2ccc(C(=N)N)cc2)N(C)O1)C(=O)O (stereo partly drawn) [Example 69, Cis-3-[2-[2-methyl-3-[4-(aminoiminomethyl)phenyl]-isoxazolidin-5-yl]acetyl]amino-N-n-butyloxycarbonyl-L-alanine monohydrogenchloride]
- pIC50: > 5.00

SMILES: Cc1cccc(S(=O)(=O)N[C@@H](CNC(=O)CC2CC(c3ccc(C(=N)N)cc3)N(C)C(=O)O2)C(=O)O)c1 (stereo partly drawn) [Example 301, Cis-3-[[[4-[4-(aminoiminomethyl)phenyl]tetrahydro-3-methyl-2-oxo-2H-1,3-oxazin-6-yl]acetyl]amino]-N-[(3-methylphenyl)sulfonyl]-L-alanine monohydrogenchloride]
- pIC50: > 5.00

SMILES: Cc1cccc(S(=O)(=O)N[C@@H](CNC(=O)CC2CC(c3ccc(C(=N)N)cc3)N(Cc3ccccc3)C(=O)O2)C(=O)O)c1 (stereo partly drawn) [Example 322, Cis-3-[[[4-[4-(aminoiminomethyl)phenyl]tetrahydro-3-benzyl-2-oxo-2H-1,3-oxazin-6-yl]acetyl]amino]-N-[(3-methylphenyl)sulfonyl]-L-alanine monohydrogenchloride]
- pIC50: > 5.00

SMILES: Cc1cccc(S(=O)(=O)N[C@@H](CNC(=O)CC2CC(c3ccc(C(=N)N)cc3)N(C)O2)C(=O)O)c1 (stereo partly drawn) [Example 2, Cis-3-[2-[2-methyl-3-[4-(aminoiminomethyl)phenyl]-isoxazolidin-5-yl]acetyl]amino-N-(3-methylphenylsulfonyl)-L-alanine monohydrogenchloride]
- pIC50: > 5.00
